Experimental data taken from ChEMBL document CHEMBL5465560, “Selectivity Literature for EUbOPEN Chemogenomic Library” (2024).
One block for each compound: values may come before it.

Key:
[1] = target: Mitogen-activated protein kinase kinase kinase kinase 1 (Homo sapiens) (UniProt Q92918); experiment: Selectivity interaction (LanthaScreen Eu Kinase Binding Assay) EUB0001632a MAP4K1; details: at 10 µM
[2] = target: Receptor-type tyrosine-protein kinase FLT3 (Homo sapiens) (UniProt P36888); experiment: Selectivity interaction (Kinase panel (Z-LYTE Assay)) EUB0001632a FLT3; details: at 10 µM
[3] = tested on: T1, Receptor-type tyrosine-protein kinase FLT3 (Homo sapiens), P36888 [N841I]; experiment: (§1) Selectivity interaction (KinomeScan (DiscoverX)) EUB0000666a FLT3; details: at 10 µM
T1 sequence (whole entry): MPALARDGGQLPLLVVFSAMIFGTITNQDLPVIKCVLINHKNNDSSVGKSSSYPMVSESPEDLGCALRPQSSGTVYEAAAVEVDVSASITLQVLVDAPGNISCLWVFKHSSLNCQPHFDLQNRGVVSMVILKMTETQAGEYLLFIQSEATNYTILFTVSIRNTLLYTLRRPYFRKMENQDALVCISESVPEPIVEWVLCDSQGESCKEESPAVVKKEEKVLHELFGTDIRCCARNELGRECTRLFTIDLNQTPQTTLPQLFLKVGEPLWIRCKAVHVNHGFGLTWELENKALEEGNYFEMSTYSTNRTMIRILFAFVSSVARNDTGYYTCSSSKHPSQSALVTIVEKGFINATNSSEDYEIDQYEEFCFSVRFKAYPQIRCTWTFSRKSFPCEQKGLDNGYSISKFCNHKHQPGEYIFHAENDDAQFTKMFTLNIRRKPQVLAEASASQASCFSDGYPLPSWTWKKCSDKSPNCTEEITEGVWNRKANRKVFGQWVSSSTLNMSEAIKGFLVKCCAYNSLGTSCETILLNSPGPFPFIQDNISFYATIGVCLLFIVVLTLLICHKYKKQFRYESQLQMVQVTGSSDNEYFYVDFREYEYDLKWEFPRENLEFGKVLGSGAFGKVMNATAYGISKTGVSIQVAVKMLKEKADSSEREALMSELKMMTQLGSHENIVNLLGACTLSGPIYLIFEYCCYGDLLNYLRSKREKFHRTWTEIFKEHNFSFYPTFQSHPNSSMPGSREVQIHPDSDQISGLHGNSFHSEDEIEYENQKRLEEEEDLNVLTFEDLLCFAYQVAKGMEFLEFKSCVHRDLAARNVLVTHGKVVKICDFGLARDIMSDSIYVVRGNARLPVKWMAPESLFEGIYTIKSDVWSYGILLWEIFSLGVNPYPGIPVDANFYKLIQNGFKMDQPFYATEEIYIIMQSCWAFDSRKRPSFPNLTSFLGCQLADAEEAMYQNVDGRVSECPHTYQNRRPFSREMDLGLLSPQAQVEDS

[4] = target: Receptor-type tyrosine-protein kinase FLT3 (Homo sapiens) (UniProt P36888); experiment: as §1; details: at 10 µM
[5] = target: Tyrosine-protein kinase receptor UFO (Homo sapiens) (UniProt P30530); experiment: Selectivity interaction (KinomeScan (DiscoverX)) EUB0000607a AXL; details: at 10 µM
[6] = target: Fibroblast growth factor receptor 2 (Homo sapiens) (UniProt P21802); experiment: Selectivity interaction (Upstate Kinase Profiler service (Millipore)) EUB0000056c FGFR2; details: at 1 µM
[7] = target: T2, Serine/threonine-protein kinase RIO3 (Homo sapiens) (UniProt O14730); details: at 10 µM
T2 sequence (whole entry): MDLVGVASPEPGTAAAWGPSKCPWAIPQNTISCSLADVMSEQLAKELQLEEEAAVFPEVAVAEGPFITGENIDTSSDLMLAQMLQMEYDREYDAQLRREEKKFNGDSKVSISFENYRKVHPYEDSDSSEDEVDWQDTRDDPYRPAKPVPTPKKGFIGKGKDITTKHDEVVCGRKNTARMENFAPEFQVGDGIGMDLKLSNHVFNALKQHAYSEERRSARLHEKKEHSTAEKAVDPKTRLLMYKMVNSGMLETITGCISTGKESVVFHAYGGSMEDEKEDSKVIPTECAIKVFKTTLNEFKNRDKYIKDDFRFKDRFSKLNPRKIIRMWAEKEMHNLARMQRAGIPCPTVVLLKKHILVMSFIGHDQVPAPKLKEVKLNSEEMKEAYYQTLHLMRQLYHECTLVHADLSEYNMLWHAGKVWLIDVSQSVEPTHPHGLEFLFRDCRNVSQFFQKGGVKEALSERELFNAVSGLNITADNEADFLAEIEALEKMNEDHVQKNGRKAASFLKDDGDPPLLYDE

[8] = target: T3, Mitogen-activated protein kinase 12 (Homo sapiens) (UniProt P53778); experiment: Selectivity interaction (ActivX KiNativ screen (kinase selectivity in THP-1 cell lysates)) EUB0000639a MAPK12; assay type: subcellular; details: lysate
T3 sequence (whole entry): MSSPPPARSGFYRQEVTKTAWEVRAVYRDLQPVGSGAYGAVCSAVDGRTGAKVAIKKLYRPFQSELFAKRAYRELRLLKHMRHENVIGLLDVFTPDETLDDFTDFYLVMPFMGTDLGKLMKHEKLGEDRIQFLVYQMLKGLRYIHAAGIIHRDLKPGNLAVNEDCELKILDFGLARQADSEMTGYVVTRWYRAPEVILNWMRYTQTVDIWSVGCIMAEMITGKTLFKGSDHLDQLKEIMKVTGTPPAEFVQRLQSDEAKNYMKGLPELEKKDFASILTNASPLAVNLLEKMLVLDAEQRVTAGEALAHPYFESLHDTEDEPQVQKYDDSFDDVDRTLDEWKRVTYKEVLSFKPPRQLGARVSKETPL

[9] = target: STE20/SPS1-related proline-alanine-rich protein kinase (Homo sapiens) (UniProt Q9UEW8); experiment: Selectivity interaction (ProQinase) EUB0000171b STK39
[10] = target: 5-hydroxytryptamine receptor 1B (Homo sapiens) (UniProt P28222); experiment: Selectivity interaction (Panel of non-epigenetic targets (kinases, GPCRs, ion channels, and transporters, Eurofins) ) EUB0000271b HTR1B; details: at 1 µM
[11] = target: Ribosomal protein S6 kinase alpha-3 (Homo sapiens, UniProt P51812); experiment: Selectivity interaction (Millipore kinase profiler) EUB0000124b RPS6KA3; details: at 10 µM
[12] = target: Serine/threonine-protein kinase 38 (Homo sapiens) (UniProt Q15208); experiment: Selectivity interaction (Kinase panel (KiNativ target engagement assay in Jurkat cells)) EUB0001635a STK38; assay type: cell-based; details: Selectivity number of off-targets 0.0, Selectivity number of targets 233.0, Source Knowledge https://www.sciencedirect.com/science/article/pii/S2451945619300674?via%3Dihub, at 1 µM
[13] = target: Phosphorylase b kinase gamma catalytic chain, skeletal muscle/heart isoform (Homo sapiens) (UniProt Q16816); experiment: Selectivity interaction (KinomeScan (DiscoverX)) EUB0000618a PHKG1; details: at 10 µM
[14] = target: Tyrosine-protein kinase receptor Tie-1 (Homo sapiens) (UniProt P35590); experiment: Selectivity interaction (KinomeScan (DiscoverX)) EUB0000618a TIE1; details: at 10 µM
Chain of Tyrosine-protein kinase receptor Tie-1 (Homo sapiens) (P35590 whole entry): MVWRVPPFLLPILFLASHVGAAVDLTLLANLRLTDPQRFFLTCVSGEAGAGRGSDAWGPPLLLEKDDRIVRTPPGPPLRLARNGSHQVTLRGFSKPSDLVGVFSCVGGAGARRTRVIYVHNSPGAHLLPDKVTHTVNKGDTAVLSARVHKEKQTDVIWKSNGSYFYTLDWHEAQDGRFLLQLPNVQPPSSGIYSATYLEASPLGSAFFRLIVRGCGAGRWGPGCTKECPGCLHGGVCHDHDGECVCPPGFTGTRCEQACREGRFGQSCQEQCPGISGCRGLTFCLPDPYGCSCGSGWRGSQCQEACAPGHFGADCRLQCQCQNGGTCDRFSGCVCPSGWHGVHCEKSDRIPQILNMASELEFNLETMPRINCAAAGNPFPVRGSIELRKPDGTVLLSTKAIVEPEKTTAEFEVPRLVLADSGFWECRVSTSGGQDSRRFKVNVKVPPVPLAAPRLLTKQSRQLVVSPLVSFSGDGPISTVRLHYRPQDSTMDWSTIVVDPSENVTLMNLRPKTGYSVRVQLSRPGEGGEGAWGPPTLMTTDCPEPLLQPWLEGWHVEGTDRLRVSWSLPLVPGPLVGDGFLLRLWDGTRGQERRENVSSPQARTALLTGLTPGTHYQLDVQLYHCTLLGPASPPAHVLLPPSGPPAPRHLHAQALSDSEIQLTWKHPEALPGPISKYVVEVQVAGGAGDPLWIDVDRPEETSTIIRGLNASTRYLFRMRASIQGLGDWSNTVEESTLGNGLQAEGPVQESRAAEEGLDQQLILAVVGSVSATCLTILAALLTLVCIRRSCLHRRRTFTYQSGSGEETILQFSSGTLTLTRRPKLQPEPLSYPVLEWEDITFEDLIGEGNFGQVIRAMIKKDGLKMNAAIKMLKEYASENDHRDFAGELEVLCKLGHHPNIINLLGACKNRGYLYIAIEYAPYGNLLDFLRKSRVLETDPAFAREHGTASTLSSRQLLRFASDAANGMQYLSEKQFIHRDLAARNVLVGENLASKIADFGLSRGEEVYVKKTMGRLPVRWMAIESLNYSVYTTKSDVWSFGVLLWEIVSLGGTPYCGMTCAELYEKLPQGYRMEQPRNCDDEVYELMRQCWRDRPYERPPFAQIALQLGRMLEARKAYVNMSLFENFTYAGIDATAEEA

Chain of Ribosomal protein S6 kinase alpha-3 (P51812 whole entry): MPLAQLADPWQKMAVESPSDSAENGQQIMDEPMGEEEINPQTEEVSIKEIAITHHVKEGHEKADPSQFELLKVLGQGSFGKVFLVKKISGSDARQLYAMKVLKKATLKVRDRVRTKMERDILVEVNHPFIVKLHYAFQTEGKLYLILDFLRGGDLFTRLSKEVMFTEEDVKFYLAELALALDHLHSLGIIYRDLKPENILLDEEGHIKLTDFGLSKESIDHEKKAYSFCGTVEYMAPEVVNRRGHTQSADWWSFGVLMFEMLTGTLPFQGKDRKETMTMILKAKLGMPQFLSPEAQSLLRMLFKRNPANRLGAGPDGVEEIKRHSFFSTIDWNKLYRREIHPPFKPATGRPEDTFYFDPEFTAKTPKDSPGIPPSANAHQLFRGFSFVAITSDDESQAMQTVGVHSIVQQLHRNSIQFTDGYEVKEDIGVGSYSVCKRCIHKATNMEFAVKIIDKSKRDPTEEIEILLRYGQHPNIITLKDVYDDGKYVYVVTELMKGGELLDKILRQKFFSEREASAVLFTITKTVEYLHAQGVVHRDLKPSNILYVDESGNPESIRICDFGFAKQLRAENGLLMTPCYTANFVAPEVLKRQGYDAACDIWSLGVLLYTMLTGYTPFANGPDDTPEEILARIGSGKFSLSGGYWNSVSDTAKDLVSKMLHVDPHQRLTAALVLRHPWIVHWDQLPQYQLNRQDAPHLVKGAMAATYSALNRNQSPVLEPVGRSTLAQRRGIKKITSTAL
Chain of Serine/threonine-protein kinase 38 (Homo sapiens) (Q15208 2-465 limits assumed): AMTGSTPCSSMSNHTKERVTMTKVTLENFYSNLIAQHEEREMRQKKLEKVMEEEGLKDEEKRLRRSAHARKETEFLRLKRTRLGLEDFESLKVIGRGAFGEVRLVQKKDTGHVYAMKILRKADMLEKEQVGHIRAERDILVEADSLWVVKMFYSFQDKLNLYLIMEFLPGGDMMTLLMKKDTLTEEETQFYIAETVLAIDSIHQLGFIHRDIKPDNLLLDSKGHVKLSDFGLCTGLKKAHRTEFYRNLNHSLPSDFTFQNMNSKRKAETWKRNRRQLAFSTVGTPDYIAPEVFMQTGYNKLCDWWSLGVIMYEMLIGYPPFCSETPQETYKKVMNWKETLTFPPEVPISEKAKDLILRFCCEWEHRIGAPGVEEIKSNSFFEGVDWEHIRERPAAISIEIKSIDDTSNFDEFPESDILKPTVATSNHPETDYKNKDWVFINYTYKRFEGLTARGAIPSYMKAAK
Chain of Tyrosine-protein kinase receptor UFO (Homo sapiens) (P30530 whole entry): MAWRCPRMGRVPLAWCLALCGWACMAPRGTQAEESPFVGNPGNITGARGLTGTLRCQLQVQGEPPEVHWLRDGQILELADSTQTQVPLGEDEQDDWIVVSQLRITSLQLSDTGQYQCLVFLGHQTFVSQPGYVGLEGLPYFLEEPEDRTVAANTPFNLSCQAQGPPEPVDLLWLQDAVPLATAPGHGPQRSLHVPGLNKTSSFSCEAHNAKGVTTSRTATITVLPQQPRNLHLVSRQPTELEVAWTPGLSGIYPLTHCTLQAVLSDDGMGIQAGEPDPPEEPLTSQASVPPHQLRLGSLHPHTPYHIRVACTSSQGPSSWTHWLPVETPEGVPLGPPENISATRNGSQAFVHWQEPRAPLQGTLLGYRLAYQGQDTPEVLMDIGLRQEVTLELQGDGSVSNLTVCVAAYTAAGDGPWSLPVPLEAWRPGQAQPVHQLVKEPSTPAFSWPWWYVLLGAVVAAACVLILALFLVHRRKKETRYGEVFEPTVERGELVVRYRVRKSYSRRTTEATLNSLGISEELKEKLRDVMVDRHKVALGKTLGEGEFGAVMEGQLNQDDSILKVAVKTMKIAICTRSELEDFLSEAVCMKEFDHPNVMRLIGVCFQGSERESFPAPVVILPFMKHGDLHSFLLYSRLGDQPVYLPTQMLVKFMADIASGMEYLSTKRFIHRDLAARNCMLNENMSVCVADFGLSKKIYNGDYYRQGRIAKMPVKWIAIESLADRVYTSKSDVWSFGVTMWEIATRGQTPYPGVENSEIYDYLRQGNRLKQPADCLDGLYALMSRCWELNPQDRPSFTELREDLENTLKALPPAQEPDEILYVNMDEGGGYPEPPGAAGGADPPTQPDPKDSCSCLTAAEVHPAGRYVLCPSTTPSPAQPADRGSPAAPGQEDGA
Chain of Fibroblast growth factor receptor 2 (Homo sapiens) (P21802 22-821 limits assumed): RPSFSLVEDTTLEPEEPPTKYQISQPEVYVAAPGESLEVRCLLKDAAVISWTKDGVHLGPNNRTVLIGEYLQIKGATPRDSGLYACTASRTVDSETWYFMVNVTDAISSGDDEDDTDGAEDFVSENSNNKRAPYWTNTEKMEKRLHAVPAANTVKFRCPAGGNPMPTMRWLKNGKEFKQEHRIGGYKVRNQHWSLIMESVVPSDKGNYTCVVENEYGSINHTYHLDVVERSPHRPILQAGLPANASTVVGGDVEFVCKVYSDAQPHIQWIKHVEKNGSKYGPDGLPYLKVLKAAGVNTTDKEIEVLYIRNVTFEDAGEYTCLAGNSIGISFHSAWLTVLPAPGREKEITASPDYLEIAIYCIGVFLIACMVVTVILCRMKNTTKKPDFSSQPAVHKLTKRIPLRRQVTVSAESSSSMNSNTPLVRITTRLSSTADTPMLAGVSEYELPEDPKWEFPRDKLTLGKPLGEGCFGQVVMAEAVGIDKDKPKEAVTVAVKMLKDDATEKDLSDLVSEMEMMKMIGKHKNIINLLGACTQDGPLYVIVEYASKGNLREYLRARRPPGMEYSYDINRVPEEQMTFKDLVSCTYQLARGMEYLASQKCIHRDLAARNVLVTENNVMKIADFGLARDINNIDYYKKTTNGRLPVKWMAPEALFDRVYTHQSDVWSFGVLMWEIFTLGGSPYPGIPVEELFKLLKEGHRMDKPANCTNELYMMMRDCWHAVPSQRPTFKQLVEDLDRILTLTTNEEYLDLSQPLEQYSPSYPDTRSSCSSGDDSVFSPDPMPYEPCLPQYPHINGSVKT
Chain of 5-hydroxytryptamine receptor 1B (Homo sapiens) (P28222 whole entry): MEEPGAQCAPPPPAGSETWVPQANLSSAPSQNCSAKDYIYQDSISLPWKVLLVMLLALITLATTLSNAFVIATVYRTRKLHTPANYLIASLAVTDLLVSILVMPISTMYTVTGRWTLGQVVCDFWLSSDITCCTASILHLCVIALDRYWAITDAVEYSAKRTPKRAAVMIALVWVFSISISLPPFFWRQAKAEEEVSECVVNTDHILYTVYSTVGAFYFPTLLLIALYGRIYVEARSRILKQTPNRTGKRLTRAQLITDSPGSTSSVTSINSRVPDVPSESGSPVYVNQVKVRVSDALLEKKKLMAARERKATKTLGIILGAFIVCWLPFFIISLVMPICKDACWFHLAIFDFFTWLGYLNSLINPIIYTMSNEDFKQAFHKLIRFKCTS
Chain of Phosphorylase b kinase gamma catalytic chain, skeletal muscle/heart isoform (Homo sapiens) (Q16816 whole entry, looked up, canonical isoform): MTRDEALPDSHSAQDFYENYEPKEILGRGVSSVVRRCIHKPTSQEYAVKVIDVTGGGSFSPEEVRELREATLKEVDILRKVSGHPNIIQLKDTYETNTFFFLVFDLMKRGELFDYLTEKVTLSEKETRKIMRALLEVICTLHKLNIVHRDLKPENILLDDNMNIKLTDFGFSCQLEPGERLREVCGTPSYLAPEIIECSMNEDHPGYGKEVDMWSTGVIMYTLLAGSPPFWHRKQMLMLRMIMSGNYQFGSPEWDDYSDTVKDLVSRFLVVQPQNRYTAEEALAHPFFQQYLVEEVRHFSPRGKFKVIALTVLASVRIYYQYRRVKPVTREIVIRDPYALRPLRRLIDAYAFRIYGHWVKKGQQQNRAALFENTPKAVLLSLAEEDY

Structure (SMILES): O=C(NOC[C@H](O)CO)c1ccc(F)c(F)c1Nc1ccc(I)cc1F
% of control [3]: 78% | % of control [4]: 82%

Structure (SMILES): CNC(=O)Nc1ccc(-c2nc(N3CC4CCC(C3)O4)c3cnn(C4CCC5(CC4)OCCO5)c3n2)cc1
% of control [5]: 88%

Structure (SMILES): Cc1ccc(-c2ccc3c(ccc4sc5c(c43)NC[C@@H](C)NC5=O)n2)cn1
% of inhibition [6]: -10%

Structure (SMILES): Cc1cc(C)cc([C@@H]2c3cc(C)ccc3NC(=O)CN2C(=O)c2ccc(Br)s2)c1
% of inhibition [10]: 6%

Structure (SMILES): C=CC(=O)Nc1ccc(C(=O)Nc2[nH]nc3c2CN(C(=O)N[C@H](CN(C)C)c2ccccc2)C3(C)C)cc1
% of engagement [12]: 0.3%

Structure (SMILES): O[C@H]1CC[C@H](Nc2ncc3nc(Nc4c(F)cc(F)cc4F)n([C@H]4CCOC4)c3n2)CC1
% of control [13]: 100% | % of control [14]: 100%

Second part, the compound after the results:

% of inhibition [1]: -18.9% | % of control [2]: 34.1%
Structure (SMILES): Cn1cc(-n2cnc3c(NCc4nc5cc(Cl)c(Cl)cc5[nH]4)nc(N4CCOCC4)nc32)cn1

% of control [7]: 100%
Structure (SMILES): CCN(CC)CCCCNc1ncc2cc(-c3cc(OC)cc(OC)c3)c(NC(=O)NC(C)(C)C)nc2n1

% of inhibition ([8]; at 0.01 µM): -4.4% | % of inhibition ([8]; at 0.04 µM): 6% | % of inhibition ([8]; at 0.2 µM): -3.6% | % of inhibition ([8]; at 1 µM): 7.4% | % of inhibition ([8]; at 5 µM): 20.3%
Structure (SMILES): CC[C@@H]1[C@H](F)C(=O)N[C@@H]1COc1nccc2cc(C(N)=O)c(OC)cc12 [ZIMLOVISERTIB]

% of control ([9]; at 1 µM): 100% | % of control ([9]; at 5 µM): 73%
Structure (SMILES): C=CC(=O)Nc1cccc(C(=O)Nc2ccc(Nc3cc(-c4[nH]c(SC)nc4C)ccn3)cc2)c1

% of control [11]: 94%
Structure (SMILES): CC(=O)Nc1cccc(-n2c(=O)n(C3CC3)c(=O)c3c(Nc4ccc(I)cc4F)n(C)c(=O)c(C)c32)c1
